In data set [1] the test system is Staphylococcus aureus. The data set can be described thus: Bactericidal activity against Staphylococcus aureus ATCC 29213 assessed as reduction in bacterial load at 1X MIC preincubated for 6 hrs followed by subculturing on TSA plate for 18 to 20 hrs by time-kill assay. It is filed as functional. The note with it: time 24-26 hrs.
In data set [2] the test system is Staphylococcus aureus. The data set can be described thus: Synergistic bactericidal activity against Staphylococcus aureus ATCC 29213 assessed as reduction in bacterial load at 1X MIC preincubated for 6 hrs in presence of gentamycin followed by subculturing on TSA plate for 18 to 20 hrs by time-kill assay. The data set is classed as functional. To be noted: time 24-26 hrs.

In data set [3] the test system is Staphylococcus aureus. The data set can be described thus: Synergistic antibacterial activity against Staphylococcus aureus ATCC 29213 assessed as fractional inhibitory concentration in presence of gentamycin incubated for 24 hrs by checkerboard assay. It is filed as functional.
In data set [4] the test system is Staphylococcus aureus. In words: Antibacterial activity against Staphylococcus aureus ATCC 29213 assessed as time for post-antibiotic effect at 1XMIC incubated for 1 hr followed by drug wash-out and measured every single 1 hr. It is filed as functional.
In data set [5] the test system is Staphylococcus aureus. The data set can be described thus: microbe, parasite or virus in culture. The note with it: ATCC 29213.
Description: Antibacterial activity against Staphylococcus aureus ATCC 29213 assessed as bacterial growth inhibition incubated for 16 to 18 hrs by broth microdilution method
The test system of data set [6] is Staphylococcus aureus. The data set can be described thus: Antibacterial activity against vancomycin-resistant Staphylococcus aureus VRS12 assessed as bacterial growth inhibition incubated for 16 to 18 hrs by broth microdilution method. The data set is classed as functional. The note with it: time 16-18 hrs.
Data set [7] has as its system Staphylococcus aureus. In words: Antibacterial activity against Staphylococcus aureus ATCC 29213 assessed as fractional inhibitory concentration in presence of levofloxacin incubated for 24 hrs by checkerboard assay. The data set is classed as functional.
The subject of the next data set is Acinetobacter baumannii. In words: Antibacterial activity against Acinetobacter baumannii BAA 1605 assessed as bacterial growth inhibition incubated for 16 to 18 hrs by broth microdilution method. The data set is classed as functional. To be noted: time 16-18 hrs.
Data set [8] relates to Staphylococcus aureus. The data set can be described thus: Antibacterial activity against Staphylococcus aureus ATCC 29213 assessed as bacterial growth inhibition in presence of ceftazidime incubated for 24 hrs by checkerboard assay. The data set is classed as functional.
The subject of data set [9] is Staphylococcus aureus. The data set can be described thus: Antibacterial activity against Staphylococcus aureus ATCC 29213 assessed as bacterial growth inhibition in presence of daptomycin incubated for 24 hrs by checkerboard assay. The data set is classed as functional.
The subject of data set [10] is Escherichia coli. In words: Antibacterial activity against Escherichia coli ATCC 25922 assessed as bacterial growth inhibition incubated for 16 to 18 hrs by broth microdilution method. It is filed as functional. To be noted: time 16-18 hrs. For orientation: In broth dilution the organism is exposed to a series of concentrations in liquid medium.
The test system of data set [11] is Enterococcus. In words: Antibacterial activity against vancomycin-susceptible Enterococcus NR 31887 assessed as bacterial growth inhibition incubated for 16 to 18 hrs by broth microdilution method. It is filed as functional. To be noted: time 16-18 hrs.
The subject of data set [12] is Escherichia coli. In words: Antibacterial activity against Escherichia coli ATCC 25922 assessed as bacterial growth inhibition in presence of outermembrane permeabilizer, PMBN incubated for 16 to 18 hrs by broth microdilution method. It is filed as functional. The note with it: time 16-18 hrs.
Data set [13] has as its system Staphylococcus aureus. The data set can be described thus: Antibacterial activity against Staphylococcus aureus ATCC 29213 assessed as bacterial growth inhibition in presence of linezolid incubated for 24 hrs by checkerboard assay. It is filed as functional.
The test system of data set [14] is Enterococcus. The data set can be described thus: Antibacterial activity against Enterococcus NR 31884 assessed as bacterial growth inhibition incubated for 16 to 18 hrs by broth microdilution method. The data set is classed as functional. To be noted: time 16-18 hrs.
A further data set concerns Pseudomonas aeruginosa. The data set can be described thus: Antibacterial activity against Pseudomonas aeruginosa ATCC 27853 assessed as bacterial growth inhibition incubated for 16 to 18 hrs by broth microdilution method. The note with it: time 16-18 hrs. The data set is classed as functional.
In data set [15] the test system is Staphylococcus aureus. The data set can be described thus: Antibacterial activity against Staphylococcus aureus ATCC 29213 assessed as fractional inhibitory concentration in presence of daptomycin incubated for 24 hrs by checkerboard assay. It is filed as functional.
Data set [16] is described as follows: Cytotoxicity against African green monkey Vero cells incubated for 72 hrs by MTT assay. To be noted: chlorocebus sabaeus. The data set is classed as cell-based. On the technique in general: Formazan colour is commonly taken as a measure of viable cells.
The subject of data set [17] is Enterococcus. The data set can be described thus: Antibacterial activity against vancomycin-resistant Enterococcus NR 31903 assessed as bacterial growth inhibition incubated for 16 to 18 hrs by broth microdilution method. It is filed as functional. The note with it: time 16-18 hrs.
For a further data set, the system named is Klebsiella pneumoniae. In words: Antibacterial activity against Klebsiella pneumoniae BAA-1705 assessed as bacterial growth inhibition incubated for 16 to 18 hrs by broth microdilution method. It is filed as functional. To be noted: time 16-18 hrs.
Data set [18] relates to Staphylococcus aureus. The data set can be described thus: Antibacterial activity against Staphylococcus aureus ATCC 29213 assessed as bacterial growth inhibition in presence of rifampicin incubated for 24 hrs by checkerboard assay. The data set is classed as functional.
Data set [19] concerns Staphylococcus aureus. In words: Antibacterial activity against Staphylococcus aureus ATCC 29213 assessed as fractional inhibitory concentration in presence of ceftazidime incubated for 24 hrs by checkerboard assay. It is filed as functional.
Data set [20] relates to Staphylococcus aureus. The data set can be described thus: Antibacterial activity against Staphylococcus aureus ATCC 29213 assessed as bacterial growth inhibition in presence of vancomycin incubated for 24 hrs by checkerboard assay. The data set is classed as functional.
The test system of data set [21] is Enterococcus. In words: Antibacterial activity against vancomycin-susceptible Enterococcus NR 31886 assessed as bacterial growth inhibition incubated for 16 to 18 hrs by broth microdilution method. To be noted: time 16-18 hrs. It is filed as functional.

In brackets after ≈: the same amount, converted by molar mass.

By CC50 is commonly meant the concentration that lowers cell viability or growth by half.

With `CC(C)=CCc1c(O)cc2oc(-c3ccc(O)cc3O)c(CC=C(C)C)c(=O)c2c1O` [CUDRAFLAVONE C], the Activity is listed as 4 log10CFU/ml in the data set with Staphylococcus aureus [1] and 9 log10CFU/ml in the data set on Staphylococcus aureus [2]. Also, the FIC is on record as 0.135 in the data set on Staphylococcus aureus [3], 1.5 in the data set with Staphylococcus aureus [7], 1.5 in the data set with Staphylococcus aureus [15] and 1.5 with Staphylococcus aureus [19]. For the same compound, the Time in the data set on Staphylococcus aureus [4] was 2 h. Moreover, the MIC in the data set on Staphylococcus aureus [5] is 2 mg/L (≈ 4.73 µM); in the data set on Staphylococcus aureus [6], 4 mg/L (≈ 9.47 µM); in the data set on Acinetobacter baumannii it was greater than 64 mg/L; with Staphylococcus aureus [8] it was 2 mg/L; in the data set with Staphylococcus aureus [9], 2 mg/L; in the data set on Escherichia coli [10] it was greater than 64 mg/L. Moreover, the MIC in the data set with Enterococcus [11] was 4 mg/L (≈ 9.47 µM); in the data set on Escherichia coli [12], 1 mg/L; in the data set with Staphylococcus aureus [13], 2 mg/L; with Enterococcus [14] it was 4 mg/L (≈ 9.47 µM); in the data set with Pseudomonas aeruginosa it was greater than 64 mg/L; in the data set with Enterococcus [17], 4 mg/L (≈ 9.47 µM). The MIC in the data set on Klebsiella pneumoniae is greater than 64 mg/L; with Staphylococcus aureus [18] it was 2 mg/L; with Staphylococcus aureus [20], 2 mg/L; with Enterococcus [21] it was 4 mg/L (≈ 9.47 µM). The midpoint of cytotoxicity in data set [16], the CC50 at 72 h, lay at 50 mg/L (≈ 118 µM).

Values taken from ChEMBL document CHEMBL4840338, “Cudraflavone C from Artocarpus hirsutus as a Promising Inhibitor of Pathogenic, Multidrug-Resistant S. aureus, Persisters, and Biofilms: A New Insight into a Rational Explanation of Traditional Wisdom” (J Nat Prod, 2021).
